Data from patent publication US11026944B2, “Compositions and methods for treating insomnia” (Eisai R&D Management Co., Ltd., priority 2014, dated 2021).

System: subjects with primary insomnia
Test: 001 Study Part B: polysomnography (LPS, WASO, SE)
Assay type: in vivo, human
Source text: For Part B, 58 otherwise healthy subjects with primary insomnia were randomized across three cohorts, and stratified by gender. Part B also included an active control (zolpidem) and matching placebo. In each cohort, there were approximately 12 subjects in the compound A/zolpidem-matched placebo group, approximately four subjects in the zolpidem/compound A-matched placebo group, and approximately four subjects in the compound A-matched placebo/zolpidem-matched placebo group. Part B dosing occurred in the evening, 30 minutes prior to the sleep period. The starting dose for Part B was 3 dose levels that determined to be safe and well tolerated in Part A. Subsequent dose levels in Part B were determined based on the PD results of the first cohort in Part B and PD and safety results from at least 3 completed higher dose cohorts in Part A. Each cohort in Part B was divided into at least two groups, with dosing of each group staggered by a minimum of 2 days.
After the initial Screening visit, eligible subjects were scheduled to return to the clinic for 2 days during the Screening Period to conduct screening/baseline PSGs. These two days occurred at least 3 days after the initial Screening visit and within a window from Day-7 to Day-6 (±2 days). The first PSG was used to screen for sleep apnea and periodic limb movements in sleep (PLMS) and serve as the first baseline PSG. The second PSG was used as the second baseline PSG. Specific PSG variables were used to determine whether subjects met PSG inclusion criteria, and the average of PSG variables from these two PSGs was used as Baseline for this PD measure. Subjects who had met PSG inclusion criteria returned to the clinic on Day-1 for additional baseline procedures and randomization. Subjects were not allowed to nap on Day 1. On the evening of Day 1, after fasting a minimum of 3 hours, study drug was administered 30 minutes prior to the subject's habitual bedtime (lights-out), as calculated from the sleep diary for the first PSG during the Screening Period. PK blood samples were collected at prespecified timepoints, and PD assessments were performed. PSG was recorded on Day 1, postdose. Subjects were administered additional PD assessments each morning on Day 1 through Day 6. These assessments included the KSS, DSST, and PVT, in order to assess daytime sleepiness, level of alertness, and ability to concentrate. The KSS and DSST were also administered 5 minutes predose and 25 minutes postdose on Day 1, just prior to lights-out. Waketime Questionnaires were administered after the PD assessments within 15 minutes of lights-on, on Day 1 to Day 6. Time and duration of naps was recorded on Day 2.
In addition, PSG was performed during the Screening Period at Days-7 and -6 (±2 days), and postdose on Day 1. An 8-hour diagnostic PSG consisting of electroencephalogram (EEG), electrooculogram (EOG), electromyogram (EMG), ECGs, leg electrodes, and measures of respiratory function (airflow, respiratory effort, and oxygen saturation) were performed starting at the subject's habitual bedtime as determined from the sleep diary for the 3 nights immediately prior to the first PSG on Day-7 (±2 days). PSG variables from this night were used to screen for sleep apnea and PLMS. On Day-6 (±2) and postdose on Day1, standard PSGs (i.e., not including leg electrodes or measures of respiratory function other than oxygen saturation) were performed. Specified PSG variables from these two PSGs conducted during the Screening Period were used to determine whether subjects met PSG inclusion criteria. The average of PSG variables from these two PSGs conducted during the Screening Period were used as baseline PSG values. The key PD parameters such as PSG LPS, TST, SE, and WASO have been obtained from all PSG recordings.

SMILES: Cc1ncc(OC[C@@]2(c3cccc(F)c3)C[C@H]2C(=O)Nc2ccc(F)cn2)c(C)n1 [Compound A, (1R,2 S)-2-(((2,4-dimethylpyrimidin-5-yl)oxy)methyl)-2-(3-fluorophenyl)-N-(5-fluoropyridin-2-yl) cyclopropanecarboxamide]
- LPS reduction relative to Baseline (single 2.5 mg evening dose): approximately 30 minutes
- WASO reduction relative to Baseline (single 2.5 mg evening dose): approximately 30 minutes
- LPS reduction relative to Baseline (single 10 mg evening dose): approximately 30 minutes
- WASO reduction relative to Baseline (single 10 mg evening dose): approximately 30 minutes
- LPS reduction relative to Baseline (single 25 mg evening dose): approximately 45 minutes
- WASO reduction relative to Baseline (single 25 mg evening dose): more than 45 minutes
